Experimental data reported in PMC10570959 (The Journal of Biological Chemistry, 2023).

Key:
5-HT2A receptor = 5-HT2A receptor (Homo sapiens, UniProt P28223); settings: read-out: 5-HT2A Ki; cited from earlier work
[1] = radiolabeled compound injected into rabbits; result in words; cited from earlier work
RmNMT [2] = assay type: biochemical, Rhinella marina; settings: for Higher conversion of substrate by RmNMT compared with OcINMT: from Table 1 activities
HsINMT = settings: read-out: Km (HsINMT); cited from earlier work
RmNMT [3] = assay type: biochemical, Rhinella marina; settings: 30 °C, 10 min
OcINMT = settings: cited from earlier work
MAO-A = settings: rat liver mitochondria; result in words; cited from earlier work
mice = settings: result in words; cited from earlier work
[4] = In vitro metabolic stability in human liver microsomes; assay type: in vitro ADME; settings: 5 μM compound, 400 μg/ml HLM, 37 °C, timepoints 0, 30, 60 min; result in words
5-HT1A receptor = target: T1, 5-HT1A receptor (Homo sapiens, UniProt P08908); assay: Radioligand competition assay; assay type: binding; settings: 0.5 nM [3H]8-hydroxy-DPAT; mean ± SD of three independent replicates
T1 sequence (P08908 1-422): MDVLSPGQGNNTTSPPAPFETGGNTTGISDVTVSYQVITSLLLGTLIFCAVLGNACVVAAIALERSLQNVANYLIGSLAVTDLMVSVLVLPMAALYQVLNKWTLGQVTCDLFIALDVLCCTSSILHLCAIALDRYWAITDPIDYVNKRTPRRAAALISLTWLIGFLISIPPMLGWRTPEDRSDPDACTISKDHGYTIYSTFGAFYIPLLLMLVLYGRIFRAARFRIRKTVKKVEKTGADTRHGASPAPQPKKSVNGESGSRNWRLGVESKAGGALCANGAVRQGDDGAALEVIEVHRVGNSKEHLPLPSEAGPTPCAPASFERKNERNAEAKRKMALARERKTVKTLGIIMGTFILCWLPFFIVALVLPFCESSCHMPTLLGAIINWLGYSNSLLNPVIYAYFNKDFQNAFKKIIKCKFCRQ

[5] = standard in vitro assay, 1 h, 37 °C, mean ± SD, triplicate

Chain of 5-HT2A receptor (P28223 whole entry): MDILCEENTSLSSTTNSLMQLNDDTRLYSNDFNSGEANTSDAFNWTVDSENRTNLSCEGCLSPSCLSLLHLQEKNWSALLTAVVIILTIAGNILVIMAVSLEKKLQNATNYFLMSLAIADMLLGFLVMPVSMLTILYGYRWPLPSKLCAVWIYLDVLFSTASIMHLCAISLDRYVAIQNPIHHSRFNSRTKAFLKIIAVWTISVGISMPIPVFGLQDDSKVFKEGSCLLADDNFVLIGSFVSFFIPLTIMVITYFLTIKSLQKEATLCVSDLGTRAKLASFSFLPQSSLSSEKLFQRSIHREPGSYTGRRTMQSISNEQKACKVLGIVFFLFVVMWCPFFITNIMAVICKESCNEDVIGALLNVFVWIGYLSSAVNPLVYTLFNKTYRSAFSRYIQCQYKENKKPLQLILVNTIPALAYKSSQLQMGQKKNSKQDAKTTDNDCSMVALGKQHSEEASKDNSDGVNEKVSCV

Structure (SMILES): CN(C)CCc1c[nH]c2cc(F)cc(O)c12 [6-fluoro-psilocin]
- Ki (5-HT2A receptor): 13 nM

Structure (SMILES): NCCc1c[nH]c2ccccc12 [Tryptamine]
- Persistence in brain tissue [1]: disappeared within minutes
- Higher conversion of substrate by RmNMT compared with OcINMT (RmNMT [2]): 18 fold
- RmNMT enzyme activity, product N-Methyltryptamine (RmNMT [2]; [5]): 3.51 ± 0.079
- Km (HsINMT): 2920 µM
- kcat (RmNMT) (RmNMT [3]): 0.00052 s⁻¹
- Km (OcINMT; read-out: Km (OcINMT)): 270 µM
- Activity as MAO-A substrate (MAO-A): substrates of MAO-A

Structure (SMILES): NCCc1c[nH]c2cccc(O)c12 [4-Hydroxytryptamine]
- Head-twitch response (mice): does not induce head-twitch response

Structure (SMILES): CN(C)CCc1c[nH]c2ccccc12 [DMT, N,N-dimethyltryptamine]
- Inhibition of OcINMT by its product (OcINMT; result in words): noncompetitively inhibited
- Ki (5-HT2A receptor): 1200 nM
- Activity as MAO-A substrate (MAO-A): could not be detected

Structure (SMILES): NCCc1c[nH]c2ccc(O)cc12 [5-Hydroxytryptamine (serotonin), 5-Hydroxytryptamine]
- RmNMT enzyme activity, product Bufotenin (RmNMT [2]): 4.65 ± 0.112

Structure (SMILES): Cc1[nH]c2ccccc2c1CCN [2-Methyltryptamine]
- Metabolic stability during exposure to human liver microsome [4]: showed greater stability
- 5-HT1A Ki (5-HT1A receptor): micromolar levels

Structure (SMILES): CN(C)CCc1c[nH]c2ccc(O)cc12 [Bufotenin, 5-hydroxy-DMT]
- Metabolic stability during exposure to human liver microsome [4]: degraded faster than psilocin

Structure (SMILES): COc1ccc2c(CCN(C)C)c[nH]c2c1 [6-methoxy-DMT]
- Ki (5-HT2A receptor): 7300 nM

Structure (SMILES): CNCCc1c[nH]c2ccccc12 [N-Methyltryptamine]
- Higher conversion of substrate by RmNMT compared with OcINMT (RmNMT [2]): 27 fold
- RmNMT enzyme activity, product DMT (RmNMT [2]; [5]): 10.44 ± 0.46
- Activity as MAO-A substrate (MAO-A): substrates of MAO-A
